Data from US11963939B2, “Use of N-acetylcysteine to treat central nervous system disorders” (Neuronasal, Inc., priority 2017, dated 2024).

Experiments:
[1] = tested on: collagenase-induced mouse model of ICH; experiment: In vivo collagenase-induced mouse model of ICH (Fluoro-Jade staining, corner task, adhesive tape removal task, hematoma size)
Protocol: In vivo collagenase-induced mouse model of ICH: Male C57BL/6 mice (8 to 10 weeks of age) or mice (10 to 12 weeks of age) were anesthetized with isoflurane (2% to 5%) and placed on a stereotaxic frame. During the procedure, the animal's body temperature was maintained at 37° C. with a homeothermic blanket. 1 mL of collagenase (0.075 IU) was infused into the right striatum at a flow rate of 0.120 μL/min using a Nanomite® syringe pump and a syringe. Relative to the bregma point, the stereotaxic coordinates of the injection were: lateral, −0.20; anteroposterior, 0.62; and dorsoventral, −0.40. In control animals, 1 mL of saline was infused. The treatment group received NAC (75 mg/kg or 300 mg/kg in normal saline, I.P.) once a day for 7 days starting at 2 h after collagenase infusion. For combinatorial studies, NAC (40 mg/kg, I.P.) and PGE 2 (10 μM, ICV) were administered to the mice 2 h after the collagenase injection, and then NAC (40 mg/kg) was administered once daily for 7 days. The control groups received the vehicle (normal saline) alone. The animals were randomized to sham or ICH groups. The identities of the mice that received vehicle or NAC were masked to surgeons who performed the experiments. […] Proper postoperative care was provided until the animals recovered completely.
Behavioral analysis: The corner task assessed integrated sensorimotor function in the stimulation of vibrissae (sensory neglect) and rearing (motor response). Mice were placed between two cardboard pieces that formed a corner with a 30° angle. While maintaining the 30° angle, the boards were gradually moved toward the mouse until the mouse approached the corner, reared upward, and turned 180° to face the open end. The direction (left or right) in which the mouse turned was recorded for each trial. Ten trials were performed for each mouse.
For the sensory neglect task (adhesive tape removal task), adhesive tape was placed on the planter region of the forward paw (right and left) of each mouse. The time from which the tape was applied to when the mouse successfully removed the tape was recorded for each paw. A maximum of 300 s for each paw was allowed.
Fluoro-Jade® B staining: Neurodegeneration of cells was assessed in mice with collagenase-induced ICH using Fluoro-Jade® B staining. 40 μM brain sections were mounted on gelatin-coated slides and dried at room temperature overnight. The sections were immersed in a graded series of alcohol solutions before being immersed in a 0.06% potassium permanganate (KMnO4) solution for 15 min. Sections were washed with water before being immersed in a 0.001% Fluoro-Jade® staining solution with gentle shaking in the dark for 30 min. The sections were then washed with water and dried overnight at room temperature in the dark before being dehydrated and coverslipped with DPX. Fluoro-Jade® B staining was examined within perihematoma or hematoma regions using a fluorescence microscope. Quantification of Fluoro-Jade® B staining was performed using three brain sections (anterior to posterior of hematoma) using Metamorph analysis.
The vehicle or NAC was then administered daily up to 7 days following the ictus. Neuronal loss was determined using a non-specific marker of neurodegeneration, Fluoro-Jade® staining. […] Mouse behavior was assessed using a corner task (spatial neglect) and an adhesive tape removal task (sensory neglect). Mouse behavior was assessed on day 1, 3, and 7 after the induction of ICH.

[2] = Total iron levels in brain of ICH mice by X-ray fluorescence; assay type: in vivo, mouse; conditions: 7 days
Description: In vivo metal distribution imaging analysis by X-ray fluorescence: Seven days following collagenase-induced ICH, mice were euthanized and perfused with trace metal-free PBS. The brains were removed from the mice and flash frozen. Tissue samples were cut into 20 μm-thick sections and deposited onto 4 μm-thick Ultralene® films. The iron and zinc contents of the tissue samples were imaged using X-ray fluorescence microscopy (XFM). X-ray fluorescence spectra were collected using an X-ray excitation energy of 11 keV and a beam size of 9 μm (vertical)×17 μm (horizontal) in 15-μm steps, with an integration time of 7 sec/pixel. The intensity for each metal was quantified by integrating the area under the curve for the respective peak in the XRF spectrum (iron Kα=6405 eV and zinc Kα=8637 eV).
National Institute of Standards and Technology thin film standard reference materials 1832 and 1833 were used to calculate concentrations and to normalize for any differences between the multiple beam time runs required to collect the data. Molar concentrations were determined by dividing the […] values by the product of the volume of X-ray beam on the sample (area×thickness of the sample), the density of tissue (estimated to be 0.9 g/cm^3), and the molecular weight of the element.
The ability of NAC to affect total metal levels in the brain was evaluated. […]

[3] = tested on: ALOX5; experiment: ALOX5 mRNA levels in hemin-treated primary cortical neurons (RT-PCR); assay type: cell-based, mouse; conditions: NAC 1 mM
Protocol: Quantitative real-time PCR: Total RNA was prepared using a NucleoSpin® RNA II kit. Duplex real-time PCR reactions were performed with gene expression assays using 6-carboxyfluorescein-labeled probes for ALOX5 (Mm 01182747_m1) and ALOX5AP (Mm 01218551_m1). Expression levels were normalized to β-actin gene expression levels, which were determined with a VIC™-labeled probe. All experiments were performed using a real-time PCR system.
The abilities of hemin and NAC to induce increases in ALOX5 and ALOX AP mRNA levels were examined. […] Consistent with the protein data (FIG. 17), hemin induced increases in ALOX AP and ALOX5 mRNA levels in a time-dependent manner.

[4] = tested on: lipid protein adducts; experiment: Hemin-induced lipid protein adduct formation (Bt-AA, streptavidin-HRP Western blot) in primary neurons; assay type: cell-based, mouse
Protocol: Electrophilic attack by ALOX5 products could alter cellular protein-mediated signaling to trigger cell death. Arachidonic acid (AA) tagged with biotin (Bt-AA) was used to monitor the formation of covalent protein adducts. To test whether hemin was sufficient to catalyze the formation of protein-reactive lipid species, primary neurons were treated with hemin at concentrations of 5 μM-50 μM for 4 h. Lipid protein adducts were detected by Western blots probed with Streptavidin-HRP. Bt-AA incorporation into protein increased with increasing concentrations of hemin, and significant lipid protein adducts were detected at 50 μM hemin. […] The blot is representative from replicates of three experiments. The arrow indicates the decrease in lipid protein adduct formation.

[5] = tested on: total glutathione; experiment: Total glutathione levels in neurons by HPLC; assay type: cell-based, mouse; conditions: 0.1 or 1.0 mM NAC, presence or absence of hemin
Description: Cysteine is the rate-limiting precursor for the synthesis of glutathione with γ-glutamylcysteine synthetase and glutathione synthetase. NAC undergoes hydrolysis to liberate cysteine, which is transported by the alanine-serine cysteine (ASC) system. To determine whether NAC-induced protection from heme requires glutathione, glutathione synthesis was inhibited using buthionine sulfoximine (BSO), a selective inhibitor of γ-glutamylcysteine synthetase, the rate limiting step in glutathione synthesis. The necessity of a NAC-induced increase in glutathione, and whether NAC-induced protection could be abrogated were evaluated. A reduction in glutathione levels was measured using HPLC. […] In the presence of hemin, the absolute levels of glutathione were reduced. […] Significance was determined by two-way ANOVA followed by Bonferroni's comparison test, from three independent experiments.

[6] = NAC 40 mg/kg i.p. and/or PGE2 10 μM ICV, days 1, 3, 7

CC(=O)N[C@@H](CS)C(=O)O [NAC, N-acetylcysteine]
Hematoma size by light microscopy ([1]; 75 mg/kg or 300 mg/kg NAC vs control ICH group): No significant difference
Adhesive tape removal task (sensory neglect) ([1]; 300 mg/kg NAC, days 1, 3, 7): improvements in sensory neglect were observed
Corner turn task deficits (spatial neglect) ([1]; 300 mg/kg NAC, days 1, 3, 7): corrected by administration of 300 mg/kg NAC
Sensory neglect (adhesive tape removal task) behavioral deficits [1, 6]: no effect
Spatial neglect (corner task) behavioral deficits [1, 6]: no effect
Neuronal degeneration in perihematomal regions (Fluoro-Jade staining) ([1]; NAC 40 mg/kg i.p. daily 7 days and/or dmPGE2 10 μM ICV 2 h post-injury): no significant effect
Neuronal degeneration in perihematomal regions (Fluoro-Jade staining) ([1]; NAC 300 mg/kg I.P. daily from 2 h post-ICH, day 7): reduced neuronal degeneration in perihematomal regions
Collagenase activity by hematoma size ([1]; NAC 300 mg/kg, 24 h after collagenase injection): did not inhibit or affect collagenase activity
Iron levels and iron distribution in brain following ICH [2]: no effect on iron levels or iron distribution
Hemin-induced ALOX5 expression [3]: blocked the expression of ALOX5
AA-protein adduct formation ([4]; non-protective doses: NAC 0.1 mM, vitamin E 1 μM, zileuton 1 μM): did not decrease AA-protein adduct formation
Lipid protein adduct formation ([4]; protective doses: NAC 1 mM, vitamin E 10 μM, zileuton 10 μM): decreased lipid protein adduct formation
Total glutathione levels in neurons [5]: dose-dependently increased the total glutathione levels
